Data on 42 molecules can be found in patent publication US8765949B2, “CCR2 receptor antagonists and uses thereof” (Boehringer Ingelheim International GmbH, priority 2009, dated 2014).

Molecules are shown by their SMILES.

For this assay, the target named is T1, CCR2 (Homo sapiens, UniProt P41597).
T1 construct: Membranes were prepared from THP-1 cells; endogenous in cells; host or cells: THP-1 (human acute monocytic leukaemia cells), membrane preparation
T1 sequence (P41597 1-360 isoform P41597-2): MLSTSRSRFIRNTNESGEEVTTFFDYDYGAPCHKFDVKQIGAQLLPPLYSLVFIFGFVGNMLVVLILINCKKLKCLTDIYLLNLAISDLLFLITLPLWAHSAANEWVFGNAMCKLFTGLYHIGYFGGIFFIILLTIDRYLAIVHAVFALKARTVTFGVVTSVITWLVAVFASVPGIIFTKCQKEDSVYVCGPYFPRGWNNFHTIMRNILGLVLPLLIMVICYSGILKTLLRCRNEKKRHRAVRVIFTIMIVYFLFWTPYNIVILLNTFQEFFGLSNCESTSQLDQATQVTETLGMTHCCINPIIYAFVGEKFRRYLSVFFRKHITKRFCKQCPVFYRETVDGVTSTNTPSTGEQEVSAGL
The assay is described as follows: CCR2 receptor membrane binding assay ([125I]MCP-1, THP-1 membranes, SPA beads). The note with it: dissociation constant hKi; THP-1 cell membranes, [125I]MCP-1, bound radioactivity after 8 h. On the procedure: The above exemplary substances have been tested for binding to CCR2 using a binding assay as outlined herein below:
THP-1 cells (human acute monocytic leukaemia cells) were cultured under standardized conditions at 37° C. and 5% CO2 in a humidified incubator. THP-1 cells were cultivated in RPMI 1640 medium (Gibco 21875) containing 1% MEM-NEAA (Gibso 11140) 2 mM L-glutamine, 1.5 g/L sodium bicarbonate, 4.5 g/L glucose, 10 mM HEPES and 1.0 mM sodium pyruvate, 90%; 10% fetal calf serum (FCS Gibco 10500-064).
Membranes were prepared from THP-1 cells. THP-1 cells were centrifuged at 300×g at 4° C. for 10 min. The cell pellet was resuspendet in Phosphate Buffer Saline (PBS, including 10 μM Pefabloc and a protease inhibitor mix ‘complete’, Boehringer Mannheim (1 tablet/50 ml)), to a concentration of […]. The membrane preparation was performed by disrupting the cells by nitrogen […] (at 50 bar, for 1 h) in a “Nitrogen Bombe” (Parr Instrument). Cell debris was removed by centrifugation (800×g at 4° C., 1 min). The supernatant was centrifuged at 80000×g, 4° C. for 30 min to sediment the cell membranes. Usually 50 mg of protein (Bradford assay) were yielded from 1×10E9 cells. The membranes were resuspendet in 25 mM HEPES, 25 mM MgCl2, 1 mM CaCl2, 10% Glycerine for storage in aliquots at −80° C. in 25 mM HEPES, 25 mM MgCl2, 1 mM CaCl2, 10% Glycerine and stored at −80° C.
Receptor Membrane Binding Assay:
Perkin Elmer NEX 332 Jod 125 MCP-1, Stock: 2200 Ci/mmol solved in 2000 μl assay buffer, stored at −20° C. THP-1 membrane were adjusted with 25 mM HEPES, pH 7.2; 5 mM MgCl2; 0.5 mM CaCl2; 0.2% BSA assay buffer to a concentration of 2.5 μg/15 μl. Amersham Biosciences PVT-WGA Beads (RPNQ0001) were adjusted with assay buffer to a concentration of 0.24 mg/30 μl. For preparation of the membrane-bead-suspension membranes and beads were incubated for 30 min at RT under rotation (60 rpm) with a ratio of 1:2. Test compounds dissolved in 100% DMSO to a concentration of 10 mM and are further diluted with 100% DMSO to 1 mM. All additional compound dilutions were obtained with assay buffer, final 1% DMSO. Compounds, membrane-bead-suspension and [125I]MCP-1 (ca. 25000 cpm/10 μl) were incubated. Bound radioactivity was determined by scintillation counter after 8 h. Determination of affinity of test compounds (dissociation constant hKi) is calculated by iterative fitting of experimental data using the “easy sys” program, which is based on law of mass action (Schittkowski K. (1994), Numerische Mathematik, Vol. 68, 129-142).
For `Cc1c(NC[C@@H]2CCC[C@H](c3ccccc3)O2)ncnc1C(=O)N1CCC(N2CCC(N(C)S(C)(=O)=O)CC2)CC1` (single isomer, unassigned) [Example 12], the Ki (usually the dissociation constant of the complex between target and ligand, obtained from inhibition or displacement) came out at 27 nM.
For `Cc1c(NC[C@@H]2CCC[C@H](c3ccccc3)O2)ncnc1C(=O)N1CCC(N2CCC(N(C)S(C)(=O)=O)CC2)CC1` (single isomer, unassigned) [Example 13], the inhibitory constant (Ki) was 486 nM.
Then `Cc1ccc([C@@H]2CCC[C@H](CNc3ncnc(C(=O)N4CCC(N5CCC(N(C)S(C)(=O)=O)CC5)CC4)c3C)O2)cc1` [Example 1], with 8 nM.
With `Cc1c(NC[C@@H]2CCC[C@H](c3ccc(C(F)(F)F)cc3)O2)ncnc1C(=O)N1CCC(N2CCC(N(C)S(C)(=O)=O)CC2)CC1` [Example 2] the figure was 151 nM; with `COC1CCN(C2CCN(C(=O)c3ncnc(NC[C@@H]4CCC[C@H](c5cccc(C(F)(F)F)c5)O4)c3C)CC2)CC1` [Example 3], 203 nM.
In the case of `COC1CCN(C2CCN(C(=O)c3ncnc(NC[C@H]4CCC[C@@H](c5ccc(C(F)(F)F)cc5)O4)c3C)CC2)CC1` [Example 4], the inhibition constant Ki is 26 nM.
For the molecule `Cc1c(NC[C@@H]2CCC[C@H](c3ccc(Cl)cc3)O2)ncnc1C(=O)N1CCC(N2CCC(N(C)S(C)(=O)=O)CC2)CC1` [Example 6], the Ki was determined as 190 nM.
With `Cc1c(NC[C@@H]2CCC[C@H](c3cccc(C(F)(F)F)c3)O2)ncnc1C(=O)N1CCC(N2CCC(N(C)S(C)(=O)=O)CC2)CC1` [Example 7] the figure was 36 nM; with `Cc1c(NC[C@H]2CCC[C@@H](c3cccc(C(F)(F)F)c3)O2)ncnc1C(=O)N1CCC(N2CCC(N(C)S(C)(=O)=O)CC2)CC1` [Example 8], 185 nM.
As for `Cc1ccc([C@@H]2CCC[C@H](CNc3ncnc(C(=O)N4CCC(N5CCC(NS(C)(=O)=O)CC5)CC4)c3C)O2)cc1` [Example 9], the inhibition constant Ki was found to be 13 nM.
Then `Cc1c(NCC2CCCC(c3ccccc3)O2)ncnc1C(=O)N1CCC(N2CCC(N(C)S(C)(=O)=O)CC2)CC1` (stereo not drawn) [Example 10], with 142 nM.
Then `Cc1c(NC[C@H]2CCC[C@@H](c3ccccc3)O2)ncnc1C(=O)N1CCC(N2CCC(N(C)S(C)(=O)=O)CC2)CC1` [Example 11], with 53 nM; and `Cc1c(NCC2CCCC(c3ccc(F)cc3)O2)ncnc1C(=O)N1CCC(N2CCC(N(C)S(C)(=O)=O)CC2)CC1` (stereo not drawn) [Example 14], with 479 nM; and `Cc1c(NCC2CCCC(c3ccc(Cl)cc3)O2)ncnc1C(=O)N1CCC(N2CCC(N(C)S(C)(=O)=O)CC2)CC1` (stereo not drawn) [Example 15], with 24 nM.
As to `Cc1ccc([C@@H]2CCC[C@H](CNc3ncnc(C(=O)N4CCC(N5CCC(N(C)S(C)(=O)=O)CC5)CC4)c3C)O2)cc1` [Example 17], the Ki was determined as 11 nM.
With `Cc1ccc([C@@H]2CCC[C@H](CNc3nc(C)nc(C(=O)N4CCC(N5CCC(N(C)S(C)(=O)=O)CC5)CC4)c3C)O2)cc1` [Example 18] the figure was 10 nM; with `Cc1ccc([C@H]2CCC[C@@H](CNc3ncnc(C(=O)N4CCC(N5CCC(N(C)S(C)(=O)=O)CC5)CC4)c3C)O2)cc1` [Example 19], 162 nM; with `Cc1ccc([C@@H]2CCC[C@H](CNc3nc(C)nc(C(=O)N4CCC(N5CCC(N(C)S(C)(=O)=O)CC5)CC4)c3C)O2)cc1` [Example 20], 11 nM.
As to `Cc1cccc([C@@H]2CCC[C@H](CNc3ncnc(C(=O)N4CCC(N5CCC(N(C)S(C)(=O)=O)CC5)CC4)c3C)O2)c1` [Example 21], the Ki came to 11 nM.
With `Cc1cccc([C@@H]2CCC[C@H](CNc3nc(C)nc(C(=O)N4CCC(N5CCC(N(C)S(C)(=O)=O)CC5)CC4)c3C)O2)c1` [Example 22] the figure was 11 nM; with `Cc1cccc([C@H]2CCC[C@@H](CNc3ncnc(C(=O)N4CCC(N5CCC(N(C)S(C)(=O)=O)CC5)CC4)c3C)O2)c1` [Example 23], 494 nM.
For `Cc1c(NC[C@H]2CCC[C@@H](c3ccc(C(F)(F)F)cc3)O2)ncnc1C(=O)N1CCC(N2CCC(N(C)S(C)(=O)=O)CC2)CC1` [Example 24], the Ki was found to be 4 nM.
For `Cc1c(NC[C@H]2CCC[C@@H](c3ccc(C(F)(F)F)nc3)O2)ncnc1C(=O)N1CCC(N2CCC(N(C)S(C)(=O)=O)CC2)CC1` [Example 25], the inhibitory constant (Ki) came out at 418 nM.
With `Cc1c(NC[C@H]2CCC[C@@H](c3ccc(OC(F)(F)F)cc3)O2)ncnc1C(=O)N1CCC(N2CCC(N(C)S(C)(=O)=O)CC2)CC1` [Example 26] the figure was 6 nM.
Then `CCS(=O)(=O)N(C)C1CCN(C2CCN(C(=O)c3ncnc(NC[C@H]4CCC[C@@H](c5ccc(Cl)cc5)O4)c3C)CC2)CC1` [Example 27], with 12 nM; and `Cc1cccc([C@H]2CCC[C@@H](CNc3nc(C)nc(C(=O)N4CCC(N5CCC(N(C)S(C)(=O)=O)CC5)CC4)c3C)O2)c1` [Example 28], with 658 nM; and `Cc1c(NC[C@@H]2CCC[C@H](c3cccc(C(F)(F)F)c3)O2)ncnc1C(=O)N1CCC(N2CCC(N(C)S(C)(=O)=O)CC2)CC1` [Example 28a], with 45 nM.
Then `Cc1c(NCC2CCCC(c3ccc(C(F)(F)F)o3)O2)ncnc1C(=O)N1CCC(N2CCC(N(C)S(C)(=O)=O)CC2)CC1` (stereo not drawn) [Example 28b], with 0.5 nM; and `COC1COCCC1NC1CCN(C(=O)c2ncnc(NC[C@@H]3CCC[C@H](c4ccc(C)c(F)c4)O3)c2C)CC1` (stereo partly drawn) [Example 28c], with 0.4 nM.
As for `Cc1ccc([C@H]2CCC[C@@H](CNc3ncnc(C(=O)N4CCC(N5CCC(N(C)S(C)(=O)=O)CC5)CC4)c3C)O2)cc1F` [Example 28d], the Ki was 12 nM.
With `COC1COCCC1NC1CCN(C(=O)c2ncnc(NCC3CCCC(c4ccc(C(F)(F)F)o4)O3)c2C)CC1` (stereo not drawn) [Example 28e] the figure was 20 nM; with `Cc1c(NC[C@@H]2CCC[C@H](c3ccc(C(C)(C)C#N)cc3)O2)ncnc1C(=O)N1CCC(N2CCC(N(C)S(C)(=O)=O)CC2)CC1` [Example 28f], 78 nM; with `Cc1ccc([C@@H]2CCC[C@H](CNc3cc(C(=O)N4CCC(N5CCC(N(C)S(C)(=O)=O)CC5)CC4)ncn3)O2)cc1` [Example 28g], 8 nM.
`CO[C@H]1COCC[C@H]1NC1CCN(C(=O)c2cc(NC[C@H]3CCC[C@@H](c4ccc(C)cc4)O3)ncn2)CC1` [Example 28h]: the Ki was found to be 4 nM.
Take `CO[C@@H]1COCC[C@@H]1NC1CCN(C(=O)c2cc(NC[C@H]3CCC[C@@H](c4ccc(C)cc4)O3)ncn2)CC1` [Example 28i]: the Ki amounted to 221 nM.
On to `CO[C@@H]1COCC[C@@H]1NC1CCN(C(=O)c2cc(NC[C@H]3CCC[C@@H](c4ccc(C(F)(F)F)cc4)O3)ncn2)CC1` [Example 28j], for which the Ki was 1 nM.
Consider `CO[C@H]1COCC[C@H]1NC1CCN(C(=O)c2cc(NC[C@H]3CCC[C@@H](c4ccc(C(F)(F)F)cc4)O3)ncn2)CC1` [Example 28k], for which the inhibition constant (Ki) worked out at 3 nM.
For `CO[C@H]1COCC[C@H]1NC1CCN(C(=O)c2cc(NC[C@H]3CCC[C@@H](c4ccc(OC(F)(F)F)cc4)O3)ncn2)CC1` [Example 28l], the Ki stood at 2 nM.
Then `CO[C@@H]1COCC[C@@H]1NC1CCN(C(=O)c2cc(NC[C@H]3CCC[C@@H](c4ccc(OC(F)(F)F)cc4)O3)ncn2)CC1` [Example 28m], with 1 nM; and `COc1cc(NC[C@H]2CCC[C@@H](c3ccc(C)cc3)O2)cc(C(=O)N2CCC(N[C@H]3CCOC[C@H]3OC)CC2)n1` [Example 28n], with 38 nM.
Then `CO[C@@H]1COCC[C@@H]1NC1CCN(C(=O)c2ncnc(NC[C@H]3CCC[C@@H](c4ccc(C)cc4)O3)c2C)CC1` [Example 29], with 4 nM.
Consider `CO[C@H]1COCC[C@H]1NC1CCN(C(=O)c2ncnc(NC[C@H]3CCC[C@@H](c4ccc(C)cc4)O3)c2C)CC1` [Example 30], for which the inhibition constant (Ki) was determined as 5 nM.
